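Method: 48-hour compound exposure of cells in 96-well plates, five concentrations, linear interpolation of endpoints. TGI is the concentration that stops growth completely.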

Test systems include A549 NSCLC; CAKI-1 renal; CCRF-CEM leukemia; EKVX NSCLC; HCC-2998 colon; HCT-15 colon; HL-60(TB) leukemia; IGROV1 ovarian; MDA-MB-231 breast; MOLT-4 leukemia; NCI/ADR-RES ovarian; PC-3 prostate; SF-268 CNS; SK-MEL-5 melanoma; SN12C renal; U251 CNS; UACC-257 melanoma; UACC-62 melanoma; HOP-92 NSCLC.
Assay in all cases: NCI-60 cell line screen, 48 h

`O=C1C(C(c2ccccc2)N2CCOCC2)=C(O)C(c2ccccc2)N1c1ccccc1` (stereo not given): the TGI in the test with A549 NSCLC, in the test on CAKI-1 renal, in the test on CCRF-CEM leukemia, in the test on EKVX NSCLC, in the test with HCC-2998 colon and with HCT-15 colon was above 10 µM each time. Further, the TGI with HL-60(TB) leukemia, in the test with IGROV1 ovarian, with MDA-MB-231 breast, with MOLT-4 leukemia, in the test on NCI/ADR-RES ovarian and with PC-3 prostate was above 10 µM in each case. Besides, the TGI in the test with SF-268 CNS, in the test on SK-MEL-5 melanoma, in the test on SN12C renal, in the test with U251 CNS, in the test with UACC-257 melanoma and in the test with UACC-62 melanoma was above 10 µM throughout.

For `Cc1n[nH]c(=O)n1/N=C/c1cccs1`, the TGI in the test on A549 NSCLC, with CAKI-1 renal, in the test on CCRF-CEM leukemia, in the test on EKVX NSCLC, with HCC-2998 colon and in the test with HCT-15 colon was above 100 µM each time. Moreover, the TGI in the test on MDA-MB-231 breast, in the test on NCI/ADR-RES ovarian, with PC-3 prostate, in the test on SF-268 CNS, with SN12C renal and in the test with U251 CNS was above 100 µM in each case. In addition, the TGI in the test with UACC-257 melanoma and with UACC-62 melanoma was above 100 µM in each case.

As for `O=C(O)Cc1cccc2c1Oc1ccccc1S2`, the TGI in the test on A549 NSCLC, in the test with CCRF-CEM leukemia, in the test on EKVX NSCLC, with HCC-2998 colon, in the test with HCT-15 colon and in the test with HL-60(TB) leukemia was above 100 µM each time. Further, the TGI in the test with HOP-92 NSCLC, in the test with IGROV1 ovarian, in the test on MOLT-4 leukemia, in the test with SF-268 CNS, with SK-MEL-5 melanoma and in the test with SN12C renal was above 100 µM throughout. Further, the TGI in the test on U251 CNS, in the test on UACC-257 melanoma and in the test on UACC-62 melanoma was above 100 µM each time.

As for `CCOC(=O)N(c1ccccc1)c1cc(=O)n2ccccc2n1`, the TGI in the test with A549 NSCLC, with CAKI-1 renal, in the test with CCRF-CEM leukemia, in the test on EKVX NSCLC, with HCC-2998 colon and with HCT-15 colon was above 100 µM each time. Moreover, the TGI with HL-60(TB) leukemia, in the test on IGROV1 ovarian, in the test on MDA-MB-231 breast, in the test with MOLT-4 leukemia, with NCI/ADR-RES ovarian and in the test with SF-268 CNS was above 100 µM throughout. Further, the TGI with SK-MEL-5 melanoma, with SN12C renal, in the test on U251 CNS, with UACC-257 melanoma and in the test with UACC-62 melanoma was above 100 µM each time.

Turning to `O=P1(c2ccccc2)c2ccccc2CCc2ccccc21`, the TGI with A549 NSCLC, in the test on CAKI-1 renal, with CCRF-CEM leukemia, with EKVX NSCLC, in the test on HCC-2998 colon and with HCT-15 colon was above 100 µM in each case. Besides, the TGI in the test on HL-60(TB) leukemia, in the test on HOP-92 NSCLC, in the test on IGROV1 ovarian, with MDA-MB-231 breast, with MOLT-4 leukemia and with PC-3 prostate was above 100 µM each time. Besides, the TGI with SF-268 CNS, in the test with SK-MEL-5 melanoma, in the test with SN12C renal, in the test on UACC-257 melanoma and in the test on UACC-62 melanoma was above 100 µM in each case.

Take `CCC(=O)N1NC(=O)C(CC)(CC)C1=O`: the TGI in the test with A549 NSCLC, with CAKI-1 renal, with CCRF-CEM leukemia, in the test with EKVX NSCLC, in the test with HCC-2998 colon and in the test on HCT-15 colon was above 100 µM throughout. The TGI in the test on HL-60(TB) leukemia, in the test with IGROV1 ovarian, in the test with MDA-MB-231 breast, in the test on MOLT-4 leukemia, in the test with NCI/ADR-RES ovarian and with PC-3 prostate was above 100 µM each time. Also, the TGI in the test with SF-268 CNS, in the test with SK-MEL-5 melanoma, in the test with SN12C renal, in the test on U251 CNS, in the test with UACC-257 melanoma and with UACC-62 melanoma was above 100 µM each time.

Take `COc1cc(/C=C/C(=O)OCCc2ccccc2)ccc1O`: the TGI in the test with A549 NSCLC is 38.9 µM; in the test with CAKI-1 renal, 29.7 µM; in the test on EKVX NSCLC it was 33.5 µM; with HCC-2998 colon, 41.3 µM; in the test on HCT-15 colon it was 44.6 µM; in the test with HL-60(TB) leukemia, 40.2 µM. In addition, the TGI in the test with IGROV1 ovarian was 28 µM; in the test with MDA-MB-231 breast it was 30.6 µM; with MOLT-4 leukemia, 37.9 µM; in the test on NCI/ADR-RES ovarian, 60.6 µM; in the test with PC-3 prostate it was 28 µM; with SF-268 CNS it was 47.4 µM. The TGI came out at 33.7 µM in the test on SK-MEL-5 melanoma; 36.7 µM with SN12C renal; 29.5 µM in the test on U251 CNS; 32.4 µM in the test on UACC-257 melanoma; 26 µM in the test on UACC-62 melanoma.

In the case of `C=CCn1c(C23CC4CC(CC(C4)C2)C3)n[nH]c1=S`, the TGI was above 100 µM with CCRF-CEM leukemia; above 100 µM in the test on HCC-2998 colon; above 100 µM with HCT-15 colon; 53.9 µM in the test with HL-60(TB) leukemia; above 100 µM in the test on IGROV1 ovarian; above 100 µM in the test on MDA-MB-231 breast. Also, the TGI in the test on MOLT-4 leukemia, in the test on NCI/ADR-RES ovarian, with PC-3 prostate, in the test on SF-268 CNS, in the test on SN12C renal and in the test with U251 CNS was above 100 µM throughout. For the same molecule, the TGI with UACC-257 melanoma and in the test with UACC-62 melanoma was above 100 µM each time.

The values above are taken from PubChem BioAssay (NCI).
